# Structures can show the parent of a compound that is named as a salt.
# System: HIV
# Test: MT4 Assay (anti-HIV activity)
# Format: cell-based
# Conditions: Human immunodeficiency virus 1, 96 h, read-out: HIV MT4 Assay IC50, HTLV-1 transformed cell line MT-4, cell titer glo, 10 point dose response curve
# Method: Antiviral HIV activity and cytotoxicity values for compounds of the invention from Table 1 were measured in parallel in the HTLV-1 transformed cell line MT-4 based on the method previously described (Hazen et al., 2007, In vitro antiviral activity of the novel, tyrosyl-based human immunodeficiency virus (HIV) type 1 protease inhibitor brecanavir (GW640385) in combination with other antiretrovirals and against a panel of protease inhibitor-resistant HIV (Hazen et al., “In vitro antiviral activity of the novel, tyrosyl-based human immunodeficiency virus (HIV) type 1 protease inhibitor brecanavir (GW640385) in combination with other antiretrovirals and against a panel of protease inhibitor-resistant HIV”, Antimicrob. Agents Chemother. 2007, 51: 3147-3154; and Pauwels et al., “Sensitive and rapid assay on MT-4 cells for the detection of antiviral compounds against the AIDS virus”, J. of Virological Methods 1987, 16: 171-185).
# Luciferase activity was measured 96 hours later by adding a cell titer glo (Promega, Madison, Wis.). Percent inhibition of cell protection data was plotted relative to no compound control. Under the same condition, cytotoxicity of the compounds was determined using cell titer glo (Promega, Madison, Wis.). IC50s were determined from a 10 point dose response curve using 3-4-fold serial dilution for each compound, which spans a concentration range >1000 fold.
row,SMILES,IC50 [nM]
1,"Cc1c(-c2c([C@H](OC3(C)CCC3)C(=O)O)n(C)c(=O)c3ccccc23)cc(F)c2c1CCCO2 (atropisomer, axis not shown; (M)) [Example 163, (2S)(M)-2-[4-(8-fluoro-5-methyl-3,4-dihydro-2H-1-benzopyran-6-yl)-2-methyl-1-oxo-1,2-dihydroisoquinolin-3-yl]-2-(1-methylcyclobutoxy)acetic acid]",110
2,"Cc1c(-c2c([C@H](OC(C)(C)C)C(=O)O)n(C)c(=O)c3cc(Br)ccc23)cc(F)c2c1CCCO2 (atropisomer, axis not shown; (M)) [Example 164, (2S)(M)-[7-bromo-4-(8-fluoro-5-methyl-3,4-dihydro-2H-chromen-6-yl)-2-methyl-1-oxo-1,2-dihydro-3-isoquinolinyl][(1,1-dimethylethyl)oxy]ethanoic acid]",460
3,"Cc1c(-c2c([C@H](OC(C)(C)C)C(=O)O)n(C)c(=O)c3cc(Nc4ccc(Cl)c(F)c4)ccc23)cc(F)c2c1CCCO2 (atropisomer, axis not shown; (M)) [Example 165, (2S)(M)-[7-[(4-chloro-3-fluorophenyl)amino]-4-(8-fluoro-5-methyl-3,4-dihydro-2H-chromen-6-yl)-2-methyl-1-oxo-1,2-dihydro-3-isoquinolinyl][(1,1-dimethylethyl)oxy]ethanoic acid]",100
4,"Cc1c(-c2c([C@H](OC(C)(C)C)C(=O)O)n(C)c(=O)c3cc(N4CCCCC4)ccc23)cc(F)c2c1CCCO2 (atropisomer, axis not shown; (M)) [Example 166, (2S)(M)-[(1,1-dimethylethyl)oxy][4-(8-fluoro-5-methyl-3,4-dihydro-2H-chromen-6-yl)-2-methyl-1-oxo-7-(1-piperidinyl)-1,2-dihydro-3-isoquinolinyl]ethanoic acid]",20
5,"Cc1c(-c2c([C@H](OC(C)(C)C)C(=O)O)n(C)c(=O)c3cc(N4CCS(=O)(=O)CC4)ccc23)cc(F)c2c1CCCO2 (atropisomer, axis not shown; (M)) [Example 167, (2S)(M)-[(1,1-dimethylethyl)oxy][7-(1,1-dioxido-4-thiomorpholinyl)-4-(8-fluoro-5-methyl-3,4-dihydro-2H-chromen-6-yl)-2-methyl-1-oxo-1,2-dihydro-3-isoquinolinyl]ethanoic acid]",3710
6,"Cc1c(-c2c([C@H](OC(C)(C)C)C(=O)O)n(C)c(=O)c3cc(N4CCOCC4)ccc23)cc(F)c2c1CCCO2 (atropisomer, axis not shown; (M)) [Example 168, (S)(M)-2-(tert-butoxy)-2-(4-(8-fluoro-5-methylchroman-6-yl)-2-methyl-7-morpholino-1-oxo-1,2-dihydroisoquinolin-3-yl)acetic acid]",260
7,"Cc1c(-c2c([C@H](OC(C)(C)C)C(=O)O)n(C)c(=O)c3cc(C(=O)N4CCOCC4)ccc23)cc(F)c2c1CCCO2 (atropisomer, axis not shown; (M)) [Example 169, (S)(M)-2-(tert-butoxy)-2-(4-(8-fluoro-5-methylchroman-6-yl)-2-methyl-7-(morpholine-4-carbonyl)-1-oxo-1,2-dihydroisoquinolin-3-yl)acetic acid]",22500
8,"Cc1cccc(-c2ccc3c(-c4cc(F)c5c(c4C)CCCO5)c([C@H](OC(C)(C)C)C(=O)O)n(C)c(=O)c3c2)n1 (atropisomer, axis not shown; (M)) [Example 173, (2S)(M)-[(1,1-dimethylethyl)oxy][4-(8-fluoro-5-methyl-3,4-dihydro-2H-chromen-6-yl)-2-methyl-7-(6-methyl-2-pyridinyl)-1-oxo-1,2-dihydro-3-isoquinolinyl]ethanoic acid]",120
9,"Cc1c(-c2c([C@H](OC(C)(C)C)C(=O)O)n(C)c(=O)c3cc(CC(C)C)ccc23)cc(F)c2c1CCCO2 (atropisomer, axis not shown; (M)) [Example 174, (2S)(M)-[(1,1-dimethylethyl)oxy][4-(8-fluoro-5-methyl-3,4-dihydro-2H-chromen-6-yl)-2-methyl-7-(2-methylpropyl)-1-oxo-1,2-dihydro-3-isoquinolinyl]ethanoic acid]",50
10,"Cc1c(-c2c([C@H](OC(C)(C)C)C(=O)O)n(C)c(=O)c3cc(Cc4ccccc4)ccc23)cc(F)c2c1CCCO2 (atropisomer, axis not shown; (M)) [Example 175, (2S)(M)-[(1,1-dimethylethyl)oxy][4-(8-fluoro-5-methyl-3,4-dihydro-2H-chromen-6-yl)-2-methyl-1-oxo-7-(phenylmethyl)-1,2-dihydro-3-isoquinolinyl]ethanoic acid]",70
11,"Cc1c(-c2c([C@H](OC(C)(C)C)C(=O)O)n(C)c(=O)c3cc(CCc4ccccc4)ccc23)cc(F)c2c1CCCO2 (atropisomer, axis not shown; (M)) [Example 176, (2S)(M)-[(1,1-dimethylethyl)oxy][4-(8-fluoro-5-methyl-3,4-dihydro-2H-chromen-6-yl)-2-methyl-1-oxo-7-(2-phenylethyl)-1,2-dihydro-3-isoquinolinyl]ethanoic acid]",50
12,"Cc1c(-c2c([C@H](OC(C)(C)C)C(=O)O)n(C)c(=O)c3cc(CN4CCOCC4)ccc23)cc(F)c2c1CCCO2 (atropisomer, axis not shown; (M)) [Example 189, (S)(M)-2-(tert-butoxy)-2-(4-(8-fluoro-5-methylchroman-6-yl)-2-methyl-7-(morpholinomethyl)-1-oxo-1,2-dihydroisoquinolin-3-yl)acetic acid]",40
13,"Cc1c(-c2c([C@H](OC(C)(C)C)C(=O)O)n(C)c(=O)c3cc(CN4CCCCC4)ccc23)cc(F)c2c1CCCO2 (atropisomer, axis not shown; (M)) [Example 190, (S)(M)-2-(tert-butoxy)-2-(4-(8-fluoro-5-methylchroman-6-yl)-2-methyl-1-oxo-7-(piperidin-1-ylmethyl)-1,2-dihydroisoquinolin-3-yl)acetic acid, Trifluoroacetic acid salt]",320
14,"Cc1c(-c2c([C@H](OC(C)(C)C)C(=O)O)n(C)c(=O)c3cc(-c4ccoc4)ccc23)cc(F)c2c1CCCO2 (atropisomer, axis not shown; (M)) [Example 194, (2S)(M)-[(1,1-dimethylethyl)oxy][4-(8-fluoro-5-methyl-3,4-dihydro-2H-chromen-6-yl)-7-(3-furanyl)-2-methyl-1-oxo-1,2-dihydro-3-isoquinolinyl]ethanoic acid]",40
15,"Cc1c(-c2c([C@H](OC(C)(C)C)C(=O)O)n(C)c(=O)c3cc(-c4ccnn4C)ccc23)cc(F)c2c1CCCO2 (atropisomer, axis not shown; (M)) [Example 195, (2S)(M)-[(1,1-dimethylethyl)oxy][4-(8-fluoro-5-methyl-3,4-dihydro-2H-chromen-6-yl)-2-methyl-7-(1-methyl-1H-pyrazol-5-yl)-1-oxo-1,2-dihydro-3-isoquinolinyl]ethanoic acid]",140
16,"Cc1n[nH]c(C)c1-c1ccc2c(-c3cc(F)c4c(c3C)CCCO4)c([C@H](OC(C)(C)C)C(=O)O)n(C)c(=O)c2c1 (atropisomer, axis not shown; (M)) [Example 196, (2S)(M)-[(1,1-dimethylethyl)oxy][7-(3,5-dimethyl-1H-pyrazol-4-yl)-4-(8-fluoro-5-methyl-3,4-dihydro-2H-chromen-6-yl)-2-methyl-1-oxo-1,2-dihydro-3-isoquinolinyl]ethanoic acid]",1160
17,"Cc1c(-c2c([C@H](OC(C)(C)C)C(=O)O)n(C)c(=O)c3cc(-c4cn[nH]c4)ccc23)cc(F)c2c1CCCO2 (atropisomer, axis not shown; (M)) [Example 197, (2S)(M)-[(1,1-dimethylethyl)oxy][4-(8-fluoro-5-methyl-3,4-dihydro-2H-chromen-6-yl)-2-methyl-1-oxo-7-(1H-pyrazol-4-yl)-1,2-dihydro-3-isoquinolinyl]ethanoic acid]",1460
18,"COc1ccc(-c2ccc3c(-c4cc(F)c5c(c4C)CCCO5)c([C@H](OC(C)(C)C)C(=O)O)n(C)c(=O)c3c2)cn1 (atropisomer, axis not shown; (M)) [Example 198, (2S)(M)-[(1,1-dimethylethyl)oxy]{4-(8-fluoro-5-methyl-3,4-dihydro-2H-chromen-6-yl)-2-methyl-7-[6-(methyloxy)-3-pyridinyl]-1-oxo-1,2-dihydro-3-isoquinolinyl}ethanoic acid]",40
19,"Cc1c(-c2c([C@H](OC(C)(C)C)C(=O)O)n(C)c(=O)c3cc(-c4ccc(N(C)C)cc4)ccc23)cc(F)c2c1CCCO2 (atropisomer, axis not shown; (M)) [Example 199, (2S)(M)-[7-[4-(dimethylamino)phenyl]-4-(8-fluoro-5-methyl-3,4-dihydro-2H-chromen-6-yl)-2-methyl-1-oxo-1,2-dihydro-3-isoquinolinyl][(1,1-dimethylethyl)oxy]ethanoic acid]",90

# Same assay, conditions: read-out: HIV MT4 Assay IC50; HTLV-1 transformed cell line MT-4; 96 hours; cell titer glo; 10 point dose response curve
row,SMILES,IC50 [nM]
1,"Cc1c(-c2c([C@H](OC(C)(C)C)C(=O)O)n(C)c(=O)c3ccccc23)cc(F)c2c1CCCO2 (atropisomer, axis not shown; (M)) [Example 159, (2S)(M)-2-(tert-butoxy)-2-(4-(8-fluoro-5-methylchroman-6-yl)-2-methyl-1-oxo-1,2-dihydroisoquinolin-3-yl)acetic acid]",30

# From US9029391B2 (priority 2011, dated 2015)
